Key:
TLR2/6 = molecular target: T1, TLR2/6 (Mus musculus, UniProt Q9EPW9+Q9QUN7); test: RAW264.7 cell nitric oxide TLR selectivity assay (FSL-1); type: cell-based; details: 27 μM
T1 construct: endogenous in cells; host or cells: RAW 264.7

representative kinases = test: Kinase profiling; type: biochemical; details: 10 μM
Cyp2C19 = molecular target: T2, Cyp2C19 (Homo sapiens, UniProt P33261); test: Cytochrome P450 toxicity assay; type: in vitro ADME; details: 25 μM and 50 μM; compared to known inhibitor ticlopidine
T2 construct: tissue Apredica (testing lab); host or cells: microsomes (subcellular fractions)
Description: (§1) Test agent was incubated (two wells per condition) with microsomes at 37° C. Control incubations containing vehicle or reference inhibitors were run along side the test agents. The final assay contained test agent, probe substrates at the indicated concentration, 2 mM NADPH, 3 mM MgCl2 in 50 mM potassium phosphate buffer, pH 7.4. The final microsomal concentration was 0.5 mg/mL. The maximum solvent concentration in the final assay was ≦0.5% to minimize the inhibition of Cyps by solvent. NADPH was added last to start the assay. At the end of ten minutes incubation, the assay was stopped by the addition of acetonitrile containing internal standard, the samples were centrifuged, and the amount of probe metabolite in the supernatant was determined by LC/MS/MS. (Testing was done by Apredica, Watertown, Mass. using subcellular fractions)

Cyp1A2 = molecular target: T3, Cyp1A2 (Homo sapiens, UniProt P05177); test: Cytochrome P450 toxicity assay; type: in vitro ADME; details: 25 μM and 50 μM; compared to known inhibitor aNF
T3 construct: tissue Apredica (testing lab); host or cells: microsomes (subcellular fractions)
T3 sequence (P05177 1-516): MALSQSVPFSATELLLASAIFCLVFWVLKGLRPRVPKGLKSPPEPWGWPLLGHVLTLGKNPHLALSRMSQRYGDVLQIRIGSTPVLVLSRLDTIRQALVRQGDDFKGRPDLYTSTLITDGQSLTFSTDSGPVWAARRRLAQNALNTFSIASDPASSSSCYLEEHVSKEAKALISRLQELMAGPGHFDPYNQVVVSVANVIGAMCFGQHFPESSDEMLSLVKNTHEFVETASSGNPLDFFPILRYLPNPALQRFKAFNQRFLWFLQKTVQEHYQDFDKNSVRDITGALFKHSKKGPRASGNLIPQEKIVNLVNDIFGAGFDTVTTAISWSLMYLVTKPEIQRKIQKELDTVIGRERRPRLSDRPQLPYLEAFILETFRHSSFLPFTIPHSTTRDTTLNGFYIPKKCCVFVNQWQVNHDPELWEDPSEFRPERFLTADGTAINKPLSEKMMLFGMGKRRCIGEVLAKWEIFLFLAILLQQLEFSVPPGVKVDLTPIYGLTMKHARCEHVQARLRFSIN
Description: as §1

Cyp2D6 = molecular target: T4, Cyp2D6 (Homo sapiens, UniProt P10635); test: Cytochrome P450 toxicity assay; type: in vitro ADME; details: 25 μM and 50 μM; compared to known inhibitor quinidine
T4 construct: tissue Apredica (testing lab); host or cells: microsomes (subcellular fractions)
Description: as §1

MCP-1 = test: In vivo poly IC-induced serum MCP-1 in wild-type mice; details: pretreatment 30 minutes prior to 100 μg poly IC i.v., serum 4 hours after
Description: Wild-type mice were treated with a single 100 μg of poly IC i.v. injection and the serum concentration of MCP-1 was investigated 4 hours after the treatment. […] Pretreatment with compound 4a at various concentrations 30 minutes prior to poly I:C application decreased MCP-1 production by about 50%.

T1 sequence (Q9QUN7 25-784): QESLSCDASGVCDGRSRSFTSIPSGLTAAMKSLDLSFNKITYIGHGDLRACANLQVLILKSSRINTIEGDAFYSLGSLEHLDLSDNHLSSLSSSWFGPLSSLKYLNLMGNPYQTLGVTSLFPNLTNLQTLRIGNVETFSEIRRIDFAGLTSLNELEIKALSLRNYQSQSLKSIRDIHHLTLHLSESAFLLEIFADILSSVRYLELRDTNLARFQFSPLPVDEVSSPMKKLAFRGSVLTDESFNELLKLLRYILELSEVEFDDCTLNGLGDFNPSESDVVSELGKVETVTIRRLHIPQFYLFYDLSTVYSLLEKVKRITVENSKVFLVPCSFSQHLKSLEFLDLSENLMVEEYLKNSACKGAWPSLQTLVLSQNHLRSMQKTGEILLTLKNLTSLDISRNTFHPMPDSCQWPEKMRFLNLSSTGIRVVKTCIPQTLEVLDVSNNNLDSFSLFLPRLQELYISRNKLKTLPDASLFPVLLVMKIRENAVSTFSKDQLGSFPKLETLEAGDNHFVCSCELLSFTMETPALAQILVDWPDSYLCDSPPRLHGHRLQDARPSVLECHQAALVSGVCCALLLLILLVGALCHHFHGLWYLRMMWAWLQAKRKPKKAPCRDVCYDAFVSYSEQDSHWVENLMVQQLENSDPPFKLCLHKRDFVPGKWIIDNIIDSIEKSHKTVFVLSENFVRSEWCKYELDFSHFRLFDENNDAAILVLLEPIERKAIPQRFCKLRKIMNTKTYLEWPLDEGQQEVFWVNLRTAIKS
T1 sequence (Q9EPW9 28-795): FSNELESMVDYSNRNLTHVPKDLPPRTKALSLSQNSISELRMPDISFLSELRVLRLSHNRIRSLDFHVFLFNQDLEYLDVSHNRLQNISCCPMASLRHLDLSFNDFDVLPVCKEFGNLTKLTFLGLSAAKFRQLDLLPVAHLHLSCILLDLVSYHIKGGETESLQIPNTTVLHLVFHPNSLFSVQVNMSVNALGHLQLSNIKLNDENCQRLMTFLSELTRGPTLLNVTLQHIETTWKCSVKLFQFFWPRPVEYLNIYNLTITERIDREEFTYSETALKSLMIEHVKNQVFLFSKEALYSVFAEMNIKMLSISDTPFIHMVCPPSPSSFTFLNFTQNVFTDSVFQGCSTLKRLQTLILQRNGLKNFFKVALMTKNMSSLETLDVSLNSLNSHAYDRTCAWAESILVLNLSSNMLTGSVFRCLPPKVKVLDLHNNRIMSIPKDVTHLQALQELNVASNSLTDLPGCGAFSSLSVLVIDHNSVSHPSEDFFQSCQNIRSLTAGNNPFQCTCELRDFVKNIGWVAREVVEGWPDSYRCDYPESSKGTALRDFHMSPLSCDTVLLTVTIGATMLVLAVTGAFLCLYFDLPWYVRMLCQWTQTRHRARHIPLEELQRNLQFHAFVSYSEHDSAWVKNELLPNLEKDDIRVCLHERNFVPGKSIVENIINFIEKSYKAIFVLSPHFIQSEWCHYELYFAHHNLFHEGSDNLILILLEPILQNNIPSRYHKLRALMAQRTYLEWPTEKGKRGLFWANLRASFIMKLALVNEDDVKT
T4 sequence (P10635 whole entry): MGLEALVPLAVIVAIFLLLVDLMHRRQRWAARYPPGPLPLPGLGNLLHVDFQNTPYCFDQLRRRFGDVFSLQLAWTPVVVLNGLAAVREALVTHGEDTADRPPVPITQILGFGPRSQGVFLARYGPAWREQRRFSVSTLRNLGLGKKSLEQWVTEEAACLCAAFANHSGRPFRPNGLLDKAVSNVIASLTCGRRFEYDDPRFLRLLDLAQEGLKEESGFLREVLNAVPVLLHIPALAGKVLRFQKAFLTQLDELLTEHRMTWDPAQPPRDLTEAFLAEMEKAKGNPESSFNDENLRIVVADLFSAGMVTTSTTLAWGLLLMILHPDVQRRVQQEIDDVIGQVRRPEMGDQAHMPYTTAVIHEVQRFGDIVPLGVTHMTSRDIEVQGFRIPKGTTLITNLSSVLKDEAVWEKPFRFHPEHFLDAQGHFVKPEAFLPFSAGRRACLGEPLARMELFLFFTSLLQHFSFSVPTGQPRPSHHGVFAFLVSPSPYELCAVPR
T2 sequence (P33261 whole entry): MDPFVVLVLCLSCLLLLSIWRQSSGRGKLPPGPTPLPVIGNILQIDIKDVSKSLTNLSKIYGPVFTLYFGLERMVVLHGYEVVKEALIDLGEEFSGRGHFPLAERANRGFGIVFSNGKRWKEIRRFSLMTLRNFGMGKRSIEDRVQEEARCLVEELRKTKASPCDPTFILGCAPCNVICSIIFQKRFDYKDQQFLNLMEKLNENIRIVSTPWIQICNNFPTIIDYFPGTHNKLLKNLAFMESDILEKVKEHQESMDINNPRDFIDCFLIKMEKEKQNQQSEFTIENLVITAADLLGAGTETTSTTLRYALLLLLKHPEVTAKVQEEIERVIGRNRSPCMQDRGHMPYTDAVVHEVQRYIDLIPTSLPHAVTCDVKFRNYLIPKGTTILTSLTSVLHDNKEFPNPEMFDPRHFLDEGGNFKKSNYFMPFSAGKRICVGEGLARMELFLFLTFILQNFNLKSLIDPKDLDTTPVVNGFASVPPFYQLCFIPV

## O=C(N[C@H](Cc1ccccc1)C(=O)O)c1sc2cc(F)ccc2c1Cl [Compound 4a, (R)-2-(3-chloro-6-fluorobenzo[b]thiophene-2-carboxamido)-3-phenylpropanoic acid]
TLR2/6
  effect on TLR2/6 signaling: without significantly affecting other TLRs
Representative kinases
  effect on kinase activities: did not significantly affect activities
Cyp2C19
  toxicity to Cyp2C19: low toxicity
Cyp1A2
  toxicity to Cyp1A2: low toxicity
Cyp2D6
  toxicity to Cyp2D6: low toxicity
MCP-1
  decrease of MCP-1 production: about 50%
